Tests used:
human CYP4A11 = human CYP4A11 (Homo sapiens (Human), UniProt Q02928); test: Inhibition test against 20-HETE producing enzyme CYP4A11 (luciferine derivative, luminescence); type: biochemical; settings: E. coli membrane fraction expressing human CYP4A11, 60 μM luciferine derivative, room temperature 60 minutes
Summary of the method: (§1)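 IC50 derived from luminescence after 60 min at room temperature with membrane fractions of E. coli expressing each human CYP (100 μg/mL protein). For CYP4A11, 60 μM luciferin derivative in 100 mM Tris-HCl pH 7.5 with NADPH-regenerating system; for CYP4F2, 2.5 μM substrate, 1 mM NADPH, 50 mM KPO4 pH 7.4.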

human CYP4F2 = human CYP4F2 (Homo sapiens (Human), UniProt P78329); test: Inhibition test against 20-HETE producing enzyme CYP4F2 (luciferine derivative, luminescence); type: biochemical; settings: E. coli membrane fraction expressing human CYP4F2, 2.5 μM luciferine derivative, room temperature 60 minutes
Summary of the method: as §1

Chain of human CYP4A11 (Q02928 5-519): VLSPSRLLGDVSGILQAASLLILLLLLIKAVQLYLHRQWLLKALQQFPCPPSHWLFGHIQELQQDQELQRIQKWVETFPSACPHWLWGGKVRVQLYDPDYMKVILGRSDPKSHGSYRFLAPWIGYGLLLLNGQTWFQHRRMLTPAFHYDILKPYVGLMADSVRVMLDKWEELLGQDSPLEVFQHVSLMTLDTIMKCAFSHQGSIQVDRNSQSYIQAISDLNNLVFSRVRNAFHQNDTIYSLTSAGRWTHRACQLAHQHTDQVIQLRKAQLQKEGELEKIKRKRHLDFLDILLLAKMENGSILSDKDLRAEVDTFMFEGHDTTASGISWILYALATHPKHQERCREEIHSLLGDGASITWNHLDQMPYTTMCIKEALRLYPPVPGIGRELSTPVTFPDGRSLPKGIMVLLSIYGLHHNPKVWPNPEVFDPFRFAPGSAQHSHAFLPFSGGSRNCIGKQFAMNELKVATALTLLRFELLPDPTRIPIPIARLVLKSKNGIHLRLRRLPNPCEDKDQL
Chain of human CYP4F2 (P78329 5-520): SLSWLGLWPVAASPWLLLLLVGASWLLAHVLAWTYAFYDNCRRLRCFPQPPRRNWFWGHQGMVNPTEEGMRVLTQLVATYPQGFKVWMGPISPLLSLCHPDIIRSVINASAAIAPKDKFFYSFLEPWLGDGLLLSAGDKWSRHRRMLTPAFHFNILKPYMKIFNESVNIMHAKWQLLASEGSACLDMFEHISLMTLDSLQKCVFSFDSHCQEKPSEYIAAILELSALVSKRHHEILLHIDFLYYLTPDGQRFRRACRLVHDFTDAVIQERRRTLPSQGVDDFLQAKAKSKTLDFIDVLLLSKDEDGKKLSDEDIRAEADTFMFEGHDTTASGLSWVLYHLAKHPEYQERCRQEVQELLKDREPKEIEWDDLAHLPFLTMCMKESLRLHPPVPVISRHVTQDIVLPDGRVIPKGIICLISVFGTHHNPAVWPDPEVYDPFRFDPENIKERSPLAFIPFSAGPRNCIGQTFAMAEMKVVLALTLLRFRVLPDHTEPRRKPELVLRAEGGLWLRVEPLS

| Compound | IC50 (human CYP4A11) | IC50 (human CYP4F2) |
| --- | --- | --- |
| O=C(O)Cc1cccc(COc2ccc(-c3ccn[nH]3)nc2)c1 [Example 22-3] | 16 nM | 17000 nM |
| O=C(O)CCc1cccc(COc2ccc(-c3ccn[nH]3)nc2)c1 [Example 22-4] | 20 nM | 1400 nM |
| O=C(O)c1cnc(-c2cccc(COc3ccc(-c4ccn[nH]4)nc3)c2)nc1 [Example 22-5, 2-[3-[[6-(1H-Pyrazol-5-yl)-3-pyridinyl]oxymethyl]phenyl]-5-pyrimidinecarboxylic Acid] | 120 nM | 3100 nM |
| O=C(O)c1ccnc(-c2cccc(COc3ccc(-c4ccn[nH]4)nc3)c2)n1 [Example 22-6] | 110 nM | 3100 nM |
| O=C(O)c1ncc(-c2cccc(COc3ccc(-c4ccn[nH]4)nc3)c2)cn1 [Example 22-7] | 38 nM | 1200 nM |
| O=C(O)C1CCN(S(=O)(=O)c2cccc(COc3ccc(-c4ccn[nH]4)nc3)c2)CC1 [Example 22-8] | 68 nM | 1500 nM |
| O=C(O)C1CCN(S(=O)(=O)c2cccc(COc3ccc(-c4ccn[nH]4)nc3)c2)C1 (stereo not shown) [Example 22-10] | 24 nM | 2000 nM |
| O=C(O)C1CN(S(=O)(=O)c2cccc(COc3ccc(-c4ccn[nH]4)nc3)c2)CCO1 (stereo not shown) [Example 22-12] | 53 nM | 2000 nM |
| CC(C)(Oc1cc(COc2ccc(-c3ccn[nH]3)nc2)ccn1)C(=O)O [Example 22-13, 2-Methyl-2-[[4-[[6-(1H-pyrazol-5-yl)-3-pyridinyl]oxymethyl]-2-pyridinyl]oxy]propanoic Acid] | 380 nM | 11000 nM |
| O=C(O)c1cc(COc2ccc(-c3ccn[nH]3)nc2)ccc1F [Example 22-15] | 92 nM | 14000 nM |
| O=C(O)c1cc(COc2ccc(-c3ccn[nH]3)nc2)ccc1Cl [Example 22-16] | 780 nM | 33000 nM |
| COc1cc(COc2ccc(-c3ccn[nH]3)nc2)ccc1C(=O)O [Example 22-17, 2-Methoxy-4-[[6-(1H-pyrazol-5-yl)-3-pyridinyl]oxymethyl]benzoic Acid] | 62 nM | 19000 nM |
| O=C(O)c1ccc(COc2ccc(-c3ccn[nH]3)nc2)cc1F [Example 22-18] | 35 nM | 18000 nM |
| O=C(O)Cc1cccc(OCCOc2ccc(-c3ccn[nH]3)nc2)c1 [Example 22-19, 2-[3-[2-[[6-(1H-Pyrazol-5-yl)-3-pyridinyl]oxy]ethoxy]phenyl] acetic Acid] | 49 nM | 1500 nM |
| O=C(O)CCCCCCOc1ccc(-c2ccn[nH]2)nc1 [Example 22-20, 7-[[6-(1H-Pyrazol-5-yl)-3-pyridinyl]oxy]heptanoic Acid] | 76 nM | 9600 nM |
| CNS(=O)(=O)c1cccc(COc2ccc(-c3ccn[nH]3)nc2)c1 [Example 23-1, N-Methyl-3-[[6-(1-H-pyrazol-5-yl)-3-pyridinyl]oxymethyl]benzenesulfonamide] | 36 nM | 220 nM |
| CNS(=O)(=O)c1cccc(CN(C)S(=O)(=O)c2cccc(COc3ccc(-c4ccn[nH]4)nc3)c2)c1 [Example 23-2, N-Methyl-3-[[methyl-[3-[[6-(1-H-pyrazol-5-yl)-3-pyridinyl]oxymethyl]phenyl]sulfonylamino]methyl]benzenesulfonamide] | 13 nM | 3 nM |
| O=S(=O)(NCCc1c[nH]c2ccccc12)c1ccc(COc2ccc(-c3ccn[nH]3)nc2)cc1 [Example 23-3] | 1700 nM | 49 nM |
| OCc1ccc(COc2ccc(-c3ccn[nH]3)nc2)cc1 [Example 23-4] | 2000 nM | 51 nM |
| OCc1cccc(COc2ccc(-c3ccn[nH]3)nc2)c1 [Example 23-5] | 480 nM | 130 nM |
| O=S(=O)(Nc1ccc(F)cc1)c1ccc(COc2ccc(-c3ccn[nH]3)nc2)cc1 [Example 23-6] | 270 nM | 6.4 nM |
| CC(C(=O)O)c1cccc(COc2ccc(-c3ccn[nH]3)nc2)c1 (stereo not shown) [Example 24-1, Sodium 2-[3-[[6-(1H-pyrazol-5-yl)-3-pyridinyl]oxymethyl]phenyl]propanoate] | 16 nM | 13000 nM |
| CC(C)(C(=O)O)c1cccc(COc2ccc(-c3ccn[nH]3)nc2)c1 [Example 24-2, Sodium 2-methyl-2-[3-[[6-(1H-pyrazol-5-yl)-3-pyridinyl]oxymethyl]phenyl]propanoate] | 16 nM | 3500 nM |
| CC(C)(C(=O)O)c1cccc(OCCOc2ccc(-c3ccn[nH]3)nc2)c1 [Example 24-3] | 60 nM | 3200 nM |
| Cc1cc(COc2ccc(-c3ccn[nH]3)nc2)ccc1C(=O)O [Example 25-1, 2-Methyl-4-[[6-(1H-pyrazol-5-yl)-3-pyridinyl]oxymethyl]benzoic Acid] | 33 nM | 16000 nM |

Results, then the compound that gave them:

| IC50 (human CYP4A11) | IC50 (human CYP4F2) | Compound |
| --- | --- | --- |
| 44 nM | 400 nM | CC(C)(O)c1cccc(COc2ccc(-c3ccn[nH]3)nc2)c1 [Example 27-1, 2-[3-[[6-(1-H-Pyrazol-5-yl)-3-pyridinyl]oxymethyl]phenyl]-2-propanol] |
| 15 nM | 300 nM | CC(O)(c1cccc(COc2ccc(-c3ccn[nH]3)nc2)c1)C(F)(F)F (stereo not shown) [Example 27-2] |
| 120 nM | 350 nM | OC1(c2cccc(COc3ccc(-c4ccn[nH]4)nc3)c2)CCC1 [Example 27-3] |
| 110 nM | 120 nM | OC1(c2cccc(COc3ccc(-c4ccn[nH]4)nc3)c2)CCCC1 [Example 27-4] |
| 79 nM | 900 nM | CC(C)(O)c1cc(COc2ccc(-c3ccn[nH]3)nc2)ccc1F [Example 27-5] |
| 61 nM | 470 nM | O=C(O)[C@H]1C[C@](O)(c2cccc(COc3ccc(-c4ccn[nH]4)nc3)c2)C1 [Example 28-1, 3-Hydroxy-3-[3-[[6-(1-H-pyrazol-5-yl)-3-pyridinyl]oxymethyl]phenyl]-1-cyclobutanecarboxylic Acid] |
| 100 nM | 1000 nM | O=C(O)[C@H]1C[C@](O)(c2cc(COc3ccc(-c4ccn[nH]4)nc3)ccc2F)C1 [Example 28-2] |
| 650 nM | 4000 nM | O=C(O)c1cccc(CCCOc2ccc(-c3ccn[nH]3)nc2)n1 [Example 29-1, 6-[3-[[6-(1H-Pyrazol-5-yl)-3-pyridinyl]oxy]propyl]-2-pyridinecarboxylic Acid] |
| 1300 nM | 2700 nM | O=C(O)c1ccnc(CCCOc2ccc(-c3ccn[nH]3)nc2)c1 [Example 29-2, 2-[3-[[6-(1H-Pyrazol-5-yl)-3-pyridinyl]oxy]propyl]-4-pyridinecarboxylic Acid] |
| 380 nM | 84 nM | O=C(O)c1ncc(CCCCOc2ccc(-c3ccn[nH]3)nc2)cn1 [Example 29-3] |
| 42 nM | 240 nM | O=C(O)c1ccc(CCCCOc2ccc(-c3ccn[nH]3)nc2)cn1 [Example 29-4] |
| 29 nM | 690 nM | O=C(O)c1cccc(CCCCOc2ccc(-c3ccn[nH]3)nc2)n1 [Example 29-5] |
| 17 nM | 1400 nM | O=C(O)CCCc1cccc(COc2ccc(-c3ccn[nH]3)nc2)c1 [Example 30-1, 4-[3-[[6-(1H-Pyrazol-5-yl)-3-pyridinyl]oxymethyl]phenyl]butanoic Acid] |
| 160 nM | 190 nM | O=C(O)CCCc1ccc(COc2ccc(-c3ccn[nH]3)nc2)cc1 [Example 30-2] |
| 150 nM | 370 nM | O=C(O)CCc1cccc(CCCOc2ccc(-c3ccn[nH]3)nc2)c1 [Example 30-3, 3-[3-[3-[[6-(1H-Pyrazol-5-yl)-3-pyridinyl]oxy]propyl]phenyl]propanoic Acid] |
| 140 nM | 350 nM | O=C(O)CCCc1cccc(CCCOc2ccc(-c3ccn[nH]3)nc2)c1 [Example 30-4] |
| 420 nM | 74 nM | O=C(O)CCCc1ccc(CCCOc2ccc(-c3ccn[nH]3)nc2)cc1 [Example 30-5] |
| 9.3 nM | 110 nM | O=C(O)c1cccc(-c2cccc(COc3ccc(-c4ccn[nH]4)nc3)c2)c1 [Example 31-1, 3-[3-[[6-(1H-Pyrazol-5-yl)-3-pyridinyl]oxymethyl]phenyl]benzoic Acid] |
| 9.8 nM | 100 nM | O=C(O)c1ccc(-c2cccc(COc3ccc(-c4ccn[nH]4)nc3)c2)cc1 [Example 31-2] |
| 25 nM | 180 nM | O=C(O)c1ccc(-c2cccc(COc3ccc(-c4ccn[nH]4)nc3)c2)cn1 [Example 31-3, 5-[3-[[6-(1H-Pyrazol-5-yl)-3-pyridinyl]oxymethyl]phenyl]-2-pyridinecarboxylic Acid] |
| 12 nM | 390 nM | O=C(O)c1cncc(-c2cccc(COc3ccc(-c4ccn[nH]4)nc3)c2)c1 [Example 31-4] |
| 33 nM | 430 nM | O=C(O)Cc1cccc(CCCOc2ccc(-c3ccn[nH]3)nc2)c1 [Example 32-1, 2-[3-[3-[[6-(1H-Pyrazol-5-yl)-3-pyridinyl]oxy]propyl]phenyl]acetic Acid] |
| 22 nM | 1300 nM | CC(C)(C(=O)O)c1cccc(CCCOc2ccc(-c3ccn[nH]3)nc2)c1 [Example 32-2] |
| 180 nM | 7000 nM | CC(=O)N1CCC(C(=O)O)(c2cccc(COc3ccc(-c4ccn[nH]4)nc3)c2)CC1 [Example 33-1, 1-Acetyl-4-[3-[[6-(1H-pyrazol-5-yl)-3-pyridinyl]oxymethyl]phenyl]-4-piperidinecarboxylic Acid] |
| 130 nM | 14000 nM | O=C(O)C1(c2cccc(COc3ccc(-c4ccn[nH]4)nc3)c2)CCOCC1 [Example 33-2, 4-[3-[[6-(1H-Pyrazol-5-yl)-3-pyridinyl]oxymethyl]phenyl]-4-oxanecarboxylic Acid] |
